Measured values as given in patent US8613928B2, “Immunizing composition and method for inducing an immune response against the β-secretase cleavage site of amyloid precursor protein” (Ramot at Tel-Aviv University Ltd., priority 2002, dated 2013).
No end group written: not given here.

How the values were obtained:
[1] = test system: amyloid anti-aggregating antibody; settings: Frenkel et al. 1998, ELISA, read-out: IC50, competitive inhibition, anti-aggregating antibody*; cited from earlier work
[2] = test system: serum antibody raised against f88-EFRH; settings: ELISA, read-out: IC50, competitive inhibition, MICE SERUM; cited from earlier work
Balb/c mice = assay: Immunization of Balb/c mice with MAP conjugated peptides, IgG titer by ELISA; assay type: in vivo; settings: injection every two weeks with Freund's adjuvant, compared among 3 MAP peptides, FIG. 3
Experimental: 3 groups of Balb/c mice were injected with 3 different MAP (octa-branched) conjugated peptides: ISEVKMDA (residues 1-8 of SEQ ID NO:1, where residue 6 is Met), VKMDAEFRH (SEQ ID NO:5) and ISEVKLDA (residues 1-8 of SEQ ID NO:1, where residue 6 is Leu). The stock solution (2 mg/ml) was prepared as follows: 1000 μl of double distilled water (DDW), 665 μl of Freund's adjuvant (Complete Freund's adjuvant on first injection and Incomplete Freund's adjuvant on subsequent injections) and 335 μl of peptide stock solution. 300 μl of the vaccination solution (immunizing composition) was injected into each mouse every two weeks after initial injection.
96-well ELISA. plates were coated with 50 μl/well peptide stock solution at dilution of 1:500 in coating buffer (0.1M Na2CO3, pH 9.6) and incubated overnight at 4° C. The plates were washed with 2×PBS (0.05% TWEEN) and 2×PBS, blocked with 3% milk/PBS 180 μl/well and incubated for 1.5 hr at 37° C. Serum dilutions in 1% milk/PBS 50 μl/well were incubated for 1 hr at 37° C., then washed again with 50 μl/well α-mouse-IgG (H+L)HRP conjugated with dilution of 1:5000 in 1% milk/PBS incubated for 1 hr at 37° C. Additional washings contained PBS (0.05% TWEEN) and finally PBS. Reaction was done with 50 μl/well of 15 ml 0.05M citrate buffer with 30 mg OPD and 5 μl of 30% H2O2. […]

| Substance | IC50 [1] [µM] | IC50 [2] [µM] | immune response after immunization (Balb/c mice) |
| --- | --- | --- | --- |
| FRH (Amyloid-beta protein 40; UniProt P05067 675-677, looked up, fragment) [residues 4-6 of Aβ] | 3000 | ~1000 | – |
| DAEFRHD [residues 1-7 of Aβ] | 0.9 | 5 | – |
| DAEFRH [residues 1-6 of Aβ] | 0.8 | 3 | – |
| EFRH [residues 3-6 of Aβ] | 3 | 6 | – |
| Aβ(1-40): full length Aβ-peptide (1-40) | 0.8 | 3 | – |
| DAEFRHDSG [residues 1-9 of Aβ] | 1 | 5 | – |
| MAP-ISEVKLDA: octavalent multiple antigenic peptide with ISEVKLDA (residues 1-8 of SEQ ID NO:1, residue 6 Leu), Swedish mutation β-secretase cleavage site epitope (also: octavalent multiple antigenic peptide on MAP core; listed as Homo sapiens) | – | – | highest immune response |
